In PubChem BioAssay (NCI):
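Growth conditions: 96-well plates. Treatment: test compound, 48 hours, 5 concentrations. Analysis: linear interpolation between bracketing concentrations; unreached endpoints set to highest concentration. At the GI50, growth is halved. TGI denotes the concentration required for complete inhibition of growth.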

How the values were obtained:
Assay in all cases: NCI-60 cell line screen, 48 h
SR leukemia = test system: SR leukemia
MCF7 breast = test system: MCF7 breast
HOP-92 NSCLC = test system: HOP-92 NSCLC
SK-MEL-2 melanoma = test system: SK-MEL-2 melanoma
786-0 renal = test system: 786-0 renal
SN12C renal = test system: SN12C renal
NCI-H460 lung = test system: NCI-H460 lung
UACC-257 melanoma = test system: UACC-257 melanoma
ACHN renal = test system: ACHN renal
HOP-62 NSCLC = test system: HOP-62 NSCLC
IGROV1 ovarian = test system: IGROV1 ovarian

Compound | TGI (SR leukemia) [µM] | TGI (MCF7 breast) [µM] | TGI (HOP-92 NSCLC) [µM] | TGI (SK-MEL-2 melanoma) [µM] | TGI (786-0 renal) [µM] | TGI (SN12C renal) [µM] | TGI (NCI-H460 lung) [µM] | TGI (UACC-257 melanoma) [µM] | TGI (ACHN renal) [µM] | TGI (HOP-62 NSCLC) [µM] | TGI (IGROV1 ovarian) [µM] | GI50 (IGROV1 ovarian) [µM]
O=C(O)CCC1(CCC(=O)O)CCCCCCCCC(CCC(=O)O)(CCC(=O)O)C(=O)C1=O | > 100 | > 100 | > 100 | > 100 | > 100 | > 100 | > 100 | > 100 | > 100 | > 100 | – | –
CCCCCCc1cc2cc(-c3cn4ccccc4n3)c(=O)oc2cc1O | 18.8 | 17.5 | 32.6 | 28.5 | 4.76 | 17.5 | 36.1 | 50.9 | 38.1 | 24.4 | 27.7 | –
Cc1c2c(n3c(nc4ccccc43)c1C#N)NCC2 | > 10 | > 10 | > 10 | – | > 10 | > 10 | > 10 | > 10 | > 10 | > 10 | > 10 | –
CC(=O)OC1CC2C(=O)CC1(C)C2(C)C (stereo not drawn) | > 100 | > 100 | > 100 | > 100 | > 100 | > 100 | > 100 | > 100 | > 100 | > 100 | > 100 | > 100
Cc1ccc(/C=C2\CCS(=O)(=O)c3ccccc3C2=O)cc1 | 63.7 | 34.8 | 31 | 44 | 34 | 45.1 | 31.3 | 35.1 | 28.6 | 80.4 | 28.7 | –
C=C1C(=O)O[C@H]2C1C[C@H](O)/C(C)=C/CC[C@@]1(C)O[C@H]21 (stereo partly drawn) | 30.9 | 27.6 | 33 | 39.9 | 32.8 | 33.8 | – | 34.5 | 22 | 91.5 | 28.3 | –
C[C@@]12C[C@@H](c3ccccc3O1)N1CCCSC1=N2 | > 100 | > 100 | > 100 | > 100 | > 100 | > 100 | > 100 | > 100 | > 100 | > 100 | > 100 | –
COC(=O)CCc1cc(OC)c2oc(-c3ccc(OC)c(OC)c3)c(CO)c2c1 | > 100 | > 100 | > 100 | > 100 | > 100 | > 100 | > 100 | > 100 | > 100 | > 100 | > 100 | –
O=C(Nc1ccccc1)c1cc2cc(CCl)ccc2oc1=O | > 100 | 82.9 | > 100 | > 100 | > 100 | > 100 | > 100 | > 100 | 31.1 | > 100 | > 100 | –
COc1cccc2c1C(=O)c1c(O)c3c(c(O)c1C2=O)CC(O)(C(C)=O)CC3OC1OC(COC(C)=O)C(OC(C)=O)C(OC(C)=O)C1OC(C)=O (stereo not drawn) | 25.8 | > 100 | 32.2 | > 100 | 56.3 | > 100 | > 100 | 36.6 | 87.6 | 33.2 | 47.5 | –
CC(C)C1CCC(=O)CC1CCCCC1CC(=O)CC1O[Si](C)(C)C(C)(C)C (stereo not drawn) | > 35.1 | 27.2 | 13.1 | 24.5 | 17.1 | 22.3 | > 100 | 21.7 | 15.2 | 33.7 | 8.24 | –
O=C(N/N=C\c1ccc(Cl)cc1)Nc1cccc2ccccc12 | 9.11 | 22.3 | 21.2 | > 100 | 3.9 | 76 | 10.2 | > 100 | 4.92 | 5.25 | > 25.8 | –
C[N+]1(C)C/C(=C\C=C\c2ccccc2)C(=O)/C(=C/C=C/c2ccccc2)C1 | 23.9 | 38.4 | 70.3 | 64.2 | 55.3 | 62.5 | 59.1 | 26 | > 100 | 46.3 | 35.8 | –
COc1cc(C2SCC(=O)N2c2ccc(Cl)cc2)cc(OC)c1OC (stereo not drawn) | 39.2 | > 100 | > 100 | > 100 | 99.6 | > 100 | > 100 | > 100 | > 100 | > 100 | > 100 | –
CC(=O)O[C@H]1C(=O)[C@@]2(C)[C@H]([C@H](OC(=O)c3ccccc3)[C@]3(O)C[C@H](OC(=O)[C@H](O)[C@@H](NC(=O)OC(C)(C)C)c4ccco4)C(C)=C1C3(C)C)[C@]1(OC(C)=O)CO[C@@H]1C[C@@H]2O | > 29 | 0.247 | 43.5 | 10.9 | > 50 | 36.3 | > 19 | > 47.2 | > 48.1 | 0.601 | > 50 | –
O=C1/C(=C/c2cccc([N+](=O)[O-])c2)Cc2ccccc21 | > 100 | > 100 | > 100 | > 100 | > 100 | > 100 | > 100 | > 100 | > 100 | > 100 | > 100 | –
O=C(/C=C/c1ccc(O)c(O)c1)c1ccc(O)cc1O | > 78.8 | 15.7 | 33.3 | 33.4 | 25.5 | 43.9 | 36.3 | 29.9 | 45.3 | 42.4 | 35.1 | –
COc1ccc2nc3c([N+](=O)[O-])ccc4c3c(c2c1)N=CN4CCN(C)C | 0.855 | 14.2 | 26.1 | 31.6 | 21.5 | 12.5 | > 34.1 | 16.1 | 16.6 | 15.3 | 13.2 | –

Compound | TGI (SR leukemia) [µM] | TGI (MCF7 breast) [µM] | TGI (HOP-92 NSCLC) [µM] | TGI (SK-MEL-2 melanoma) [µM] | TGI (786-0 renal) [µM] | TGI (SN12C renal) [µM] | TGI (NCI-H460 lung) [µM] | TGI (UACC-257 melanoma) [µM] | TGI (ACHN renal) [µM] | TGI (HOP-62 NSCLC) [µM] | TGI (IGROV1 ovarian) [µM] | GI50 (IGROV1 ovarian) [µM]
O=[N+]([O-])c1ccc(C2NC(=S)NC3c4cc([N+](=O)[O-])ccc4CCCC23)cc1 (stereo not drawn) | > 100 | > 100 | 45.5 | > 100 | > 100 | > 100 | > 100 | > 100 | > 100 | > 100 | > 100 | –
CC1=C(N2CC2)C(=O)C(C)=C(N2CC2)C1=O | 5.72 | 1.46 | 0.988 | 1.39 | 0.622 | 1.59 | 0.634 | 2.77 | 0.445 | 1.09 | 1.31 | –
Nc1nc(N)c2c(-c3ccccc3)ccnc2n1 | > 100 | > 100 | > 100 | > 100 | > 100 | > 100 | > 100 | > 100 | > 100 | > 100 | > 100 | –
CCOC(=O)Cc1ccc(Nc2nc3cc(F)c(F)cc3nc2C(=O)OCC)cc1 | > 100 | > 100 | 54.6 | 92.2 | > 100 | > 100 | > 100 | > 100 | 33.5 | > 100 | > 100 | –
Oc1c(Cl)c(Cl)c(O)c(-c2cnc(-c3ncc(-c4c(O)c(Cl)c(Cl)c(O)c4Cl)s3)s2)c1Cl | > 100 | 52 | > 100 | 54.1 | 53.2 | 66.3 | > 100 | 97.8 | 51.5 | > 100 | 37 | –
O=c1[nH]c(Br)nc2n[nH]nc12 | > 100 | > 100 | > 100 | > 100 | > 100 | > 100 | > 100 | > 100 | > 100 | 94.8 | > 100 | –
Nc1n[nH]c(N)n1 | 9840 | > 10000 | 9580 | > 10000 | > 10000 | > 8900 | 8220 | > 9050 | > 10000 | 3550 | > 7740 | –
CC(C)(C)c1cc(OCc2n[nH]c(=S)n2N)c(Cl)cc1OCc1n[nH]c(=S)n1N | > 100 | > 100 | > 100 | 43 | > 100 | 94 | 77.9 | > 100 | > 100 | > 100 | > 100 | –
c1cc2cc(Cc3ccc4[nH]ccc4c3)ccc2[nH]1 | 39.2 | 32.3 | 34.9 | 44.3 | 33.6 | 31.7 | 31.1 | 57.7 | 64.8 | 32.2 | 39.4 | –
CCOC(=O)CN1C(=O)c2c(NC(=O)C(=O)O)cccc2S1(=O)=O | > 100 | > 100 | > 100 | > 100 | > 100 | > 100 | > 100 | > 100 | > 100 | > 100 | > 100 | –
COc1cccc(C2c3cc4c(cc3OC(NNC(N)=O)C2C)OCO4)c1OC (stereo not drawn) | 18.8 | > 100 | 57.8 | 52.1 | 16.5 | > 100 | 68 | 92.1 | > 100 | 57.5 | 83.2 | –
COc1cc2c(cc1OC)-c1cc3cc(OC)c(OC)cc3c(C)[n+]1CC2 (tested in a mixture with another compound) | […] | > 100 | > 100 | > 100 | > 100 | > 100 | 71.2 | 46.3 | > 100 | > 100 | > 100 | –
CC(c1ccccc1)n1c2ccccc2c2c(N)ncnc21 (stereo not drawn) | 56.7 | 37.2 | 27.6 | 45.3 | 28.6 | – | 58.3 | 31.2 | 31.9 | 31.9 | 38.2 | –
CC(=O)c1ccc(Nc2nc3ccccc3c3occc23)cc1 | 18.4 | 56.6 | 49.8 | 48.6 | 21.7 | > 100 | 23 | 31.6 | 60.2 | 36.2 | 36.2 | –
CCOC(=O)c1c(Br)c(-c2ccc([N+](=O)[O-])cc2)c(Br)n1C | > 10 | > 10 | > 10 | > 10 | > 10 | > 10 | > 10 | > 10 | > 10 | > 10 | > 10 | –
CC1=C(C(=O)NNC(=O)c2ccccc2O)CC(C(=O)NNC(=O)c2ccccc2O)=C(C)N1 | > 29.2 | > 48.5 | > 100 | > 100 | > 61.7 | > 100 | > 100 | > 100 | > 88.7 | > 86.2 | > 35.4 | –
O=C(OCC1CC(C2(O)CCCCC2)C(=O)O1)c1ccccc1 (stereo not drawn) | > 100 | > 100 | > 100 | > 100 | > 100 | > 100 | > 100 | > 100 | > 100 | > 100 | > 100 | –
CCOC(=O)C12CCC(c3c(C)cccc3C)(O1)C(C(=O)OC)=C2C(=O)OC (stereo not drawn) | 6.06 | > 10 | > 10 | > 10 | > 10 | > 10 | > 10 | 8.15 | > 10 | > 10 | > 10 | –
